Results on 27 compounds are retold here after patent US11274078B2, “Drug for treating tumor diseases and having antibacterial antivirus anti-inflammatory effects” (priority 2017, dated 2022).

Common to all, as to format: cell-based
Assay [1] has as its system HCT-116 tumor cells. The experiment in a line: Cell proliferation inhibition assay (MTT), HCT-116. The note with it: HCT-116 cells, 48 hours. The method, then:
(§1) Case Study I: Antitumor Cell Activity of Naphthalene Diamides • Compounds of Tables 1 and 2 were synthesized in multiple steps according to the procedure of Examples 1-3 using relevant antitumor cell activity assays. The compound synthesized above was tested for IC50 concentration (MIC) against HCT-116, MCF-7, Calu-6 and A549 tumor cells by in vitro cellular activity.
(§2) Case Study II: Cell Proliferation Inhibition Assay • Based on MTT method, briefly plating HCT-116, MCF-7 and A549 cells in a concentration of 2×10^4/ml with complete culture medium in 96-well plates overnight. The volume for each well was 100 μL. Cells were treated with compounds in concentrations of 40, 20, 10, 5, 2.5, 1.25 μmol/L, and cultured at 37° C., 5% CO2 for 48 hours, followed by adding 20 μL of 5 mg/ml MTT reagent per well and continuing to culture for 2˜4 h, respectively. As a control, DMSO solvent was added in an equal volume with concentration of 0.1%. Each sample was tested as 5 replicate wells. Then the supernatant was discarded, and DMSO was added in a volume of 150 μL, followed by shaking and mixing for 15 mins. The absorbance (A) value (A value is proportional to the number of living cells) is measured by a microplate reader at the wavelength of 570 nm, and the average value is taken. The relative cell proliferation inhibition rate (%)=(control group A570—experimental group A570)/control group A570×100%. The concentration of 50% inhibition rate (IC50) of the compound was calculated by the repetition of at least 3 times. The positive control was used as 5-flucrouracil.

Assay [2] relates to MCF-7 tumor cells. Kind of assay: Cell proliferation inhibition assay (MTT), MCF-7. The conditions noted are these: MCF-7 cells, 48 hours. Here is the method:
as §1, §2

Assay [3] deals with Calu-6 tumor cells. The experiment in a line: In vitro antitumor cell activity, Calu-6. The note with it: Calu-6 cells. The method, then:
as §1, §2

The subject of assay [4] is A549 tumor cells. The experiment in a line: Cell proliferation inhibition assay (MTT), A549. The conditions noted are these: 48 hours. The method, then: as §1, §2

The term IC50 denotes the concentration that inhibits the measured activity by half. A higher IC50 goes with weaker potency. Regarding `COc1ccc(OC)c(C(=O)Nc2ccc3cc(C(=O)NCc4ccc(Cl)nc4)ccc3c2)c1` [ABC-15], the IC50 in assay [1] was 6.6 µM; in assay [2] it was 3.5 µM.
As for `Cc1cccc(C(=O)Nc2ccc3cc(C(=O)Nc4nccs4)ccc3c2)c1` [ABC-32], the IC50 came to 5.5 µM in assay [1], 28.1 µM in assay [3], 14.2 µM in assay [4] and 2.9 µM in assay [2].
`O=C(Nc1ccc2cc(C(=O)NC3CC3)ccc2c1)c1ccc(F)cc1` [ABC-21]: the 50% inhibitory concentration (IC50) in assay [3] and in assay [4] was 48.5 µM throughout.
Turning to `O=C(NCc1ccc(Cl)nc1)c1ccc2cc(NC(=O)c3ccc(F)cc3)ccc2c1` [ABC-07], the IC50 is 5.8 µM in assay [1] and 7.6 µM in assay [2].
Take `O=C(Nc1ccc2cc(C(=O)Nc3nccs3)ccc2c1)c1cccc(C(F)(F)F)c1` [ABC-34]: the 50% inhibitory concentration (IC50) worked out at 5.2 µM in assay [1] and 1.6 µM in assay [2].
In assay [1], `O=C(Nc1ccc2cc(C(=O)NC3CC3)ccc2c1)c1cccc(C(F)(F)F)c1` [ABC-28] yielded a half-inhibitory concentration (IC50) of 5 µM.
Same read-out and setting: next, `COc1ccc(C(=O)Nc2ccc3cc(C(=O)NC(C)C)ccc3c2)cc1` [ABC-29]: 8 µM.
For the compound `Cc1cccc(C(=O)Nc2ccc3cc(C(=O)NCc4ccc(Cl)nc4)ccc3c2)c1` [ABC-09], the values for the IC50 in assay [1] and in assay [2] were 3.5 µM and 3.2 µM, respectively.
`O=C(Nc1ccc2cc(C(=O)Nc3nccs3)ccc2c1)c1cccc(Cl)c1` [ABC-45]: the IC50 was determined as 10 µM in assay [1], 12.6 µM in assay [3], 4.3 µM in assay [4] and 6.7 µM in assay [2].
As to `COc1ccc(C(=O)Nc2ccc3cc(C(=O)Nc4nccs4)ccc3c2)cc1` [ABC-31], the IC50 in assay [2] came to 3.9 µM.
Consider `O=C(NCc1ccc(Cl)nc1)c1ccc2cc(NC(=O)c3cccc(C(F)(F)F)c3)ccc2c1` [ABC-17], for which the results for the IC50 in assay [1] and in assay [2] were 3.6 µM and 3.2 µM, respectively.
As for `O=C(Nc1ccc2cc(C(=O)N3CCOCC3)ccc2c1)c1ccc(Cl)c(Cl)c1` [ABC-40], the 50% inhibitory concentration (IC50) in assay [3] is 12.4 µM.
In the case of `CC(C)NC(=O)c1ccc2cc(NC(=O)c3ccc(Cl)c(Cl)c3)ccc2c1` [ABC-48], the results for the half-inhibitory concentration (IC50) in assay [1] and in assay [4] were 3.9 µM and 12.6 µM, respectively.
On to `COc1ccc(C(=O)Nc2ccc3cc(C(=O)NC4CC4)ccc3c2)cc1` [ABC-27], for which the IC50 in assay [1] turned out to be 38.8 µM; in assay [2] it was 2.65 µM.
For `O=C(Nc1ccc2cc(C(=O)Nc3nccs3)ccc2c1)c1ccc(Cl)c(Cl)c1` [ABC-46], the IC50 is 2 µM in assay [1], 1.6 µM in assay [4] and 6.2 µM in assay [2].
On to `O=C(Nc1ccc2cc(C(=O)NC3CC3)ccc2c1)c1cccc(Cl)c1` [ABC-43], for which the results for the IC50 in assay [3] and in assay [4] were 25.3 µM and 25.2 µM, respectively.
`O=C(Nc1ccc2cc(C(=O)Nc3cccc(C(F)(F)F)c3)ccc2c1)c1cccc(C(F)(F)F)c1` [ABC-26] displayed a half-maximal inhibitory concentration (IC50) in assay [1] of 3.5 µM.
As for `COc1ccc(C(=O)Nc2ccc3cc(C(=O)Nc4cccc(C(F)(F)F)c4)ccc3c2)cc1` [ABC-33], the figures for the IC50 in assay [1] and in assay [2] were 3 µM and 6.6 µM, respectively.
`O=C(Nc1ccc2cc(C(=O)Nc3nccs3)ccc2c1)c1ccc(F)cc1` [ABC-02] had an IC50 in assay [1] of 10 µM.
In the case of `CC(C)NC(=O)c1ccc2cc(NC(=O)c3cccc(Cl)c3)ccc2c1` [ABC-47], the IC50 is 2.5 µM in assay [1] and 12.4 µM in assay [4].
On to `COc1ccccc1C(=O)Nc1ccc2cc(C(=O)NC(C)C)ccc2c1` [ABC-38], for which the IC50 turned out to be 5 µM in assay [1] and 9 µM in assay [2].
With `O=C(Nc1ccc2cc(C(=O)N3CCOCC3)ccc2c1)c1ccc(F)cc1` [ABC-11], the IC50 in assay [1] amounted to 5.5 µM; in assay [4] it was 28.1 µM; in assay [2], 3.7 µM.
As for `O=C(Nc1ccc2cc(C(=O)NC3CCCCC3)ccc2c1)c1cccc(C(F)(F)F)c1` [ABC-24], the IC50 in assay [1] was determined as 5 µM.
Compound `O=C(Nc1ccc2cc(C(=O)NC3CC3)ccc2c1)c1ccc(Cl)c(Cl)c1` [ABC-44] had an IC50 in assay [3] of 5.5 µM.
Turning to `CN1CCN(C(=O)c2ccc3cc(NC(=O)c4ccc(Cl)c(Cl)c4)ccc3c2)CC1` [ABC-42], the IC50 stood at 20 µM in assay [1], 7.1 µM in assay [3] and 3.7 µM in assay [4].
Regarding `CN1CCN(C(=O)c2ccc3cc(NC(=O)c4cccc(C(F)(F)F)c4)ccc3c2)CC1` [ABC-20], the results for the IC50 in assay [1] and in assay [2] were 24.9 µM and 2.7 µM, respectively.
Turning to `Cc1cccc(C(=O)Nc2ccc3cc(C(=O)N4CCN(C)CC4)ccc3c2)c1` [ABC-05], the IC50 in assay [1] worked out at 10 µM.
